Assay results: ChEMBL document CHEMBL4368926, “Arylpyridines, arylpyrimidines and related compounds as potential modulator agents of the VEGF, hTERT and c-Myc oncogenes” (Bioorg Med Chem, 2019)

Experiments:
HT-29 [1] = assay: Cytotoxicity against human HT-29 cells assessed as decrease in cell viability after 2 days by MTT assay; type: functional, cell-based; conditions: HT-29, 48 h
MCF7 = assay: Cytotoxicity against human MCF7 cells assessed as decrease in cell viability after 2 days by MTT assay; type: functional, cell-based; conditions: MCF7, 48 h
HEK293 = assay: Cytotoxicity against HEK293 cells assessed as decrease in cell viability after 2 days by MTT assay; type: ADME, cell-based; conditions: Homo sapiens, HEK293, 48 h
[2] = Selectivity index, ratio of IC50 for HEK293 cells to IC50 for human HT-29 cells; type: toxicity; conditions: HEK293 cells versus HT-29 cells, read-out: Ratio IC50
[3] = Selectivity index, ratio of IC50 for HEK293 cells to IC50 for human MCF7 cells; conditions: HEK293 cells versus MCF7 cells
HT-29 [4] = assay: Down-regulation of hTERT mRNA expression in human HT-29 cells assessed as hTERT mRNA level at 100 uM after 48 hrs by RT-qPCR analysis (reference value: 100%); type: functional
HT-29 [5] = assay: Down-regulation of c-Myc mRNA expression in human HT-29 cells assessed as c-Myc mRNA level at 100 uM after 48 hrs by RT-qPCR analysis (reference value: 100%); type: functional
HT-29 [6] = assay: Down-regulation of VEGFRA mRNA expression in human HT-29 cells assessed as VEGFRA mRNA level at 100 uM after 48 hrs by RT-qPCR analysis (reference value: 100%); type: functional
HT-29 [7] = assay: Down-regulation of c-Myc protein expression in human HT-29 cells assessed as c-Myc protein level at 100 uM after 48 hrs by ELISA (reference value: 100%); type: functional
HT-29 [8] = assay: Down-regulation of VEGFA protein expression in human HT-29 cells assessed as VEGFA protein level at 100 uM after 48 hrs by ELISA (reference value: 100%); type: functional
HT-29 [9] = assay: Down-regulation of VEGFRA mRNA expression in human HT-29 cells assessed as VEGFRA mRNA level at 20 uM after 48 hrs by RT-qPCR analysis (reference value: 100%); type: functional
HT-29 [10] = assay: Down-regulation of hTERT mRNA expression in human HT-29 cells assessed as hTERT mRNA level at 40 uM after 48 hrs by RT-qPCR analysis (reference value: 100%); type: functional
HT-29 [11] = assay: Down-regulation of c-Myc mRNA expression in human HT-29 cells assessed as c-Myc mRNA level at 40 uM after 48 hrs by RT-qPCR analysis (reference value: 100%); type: functional
HT-29 [12] = assay: Down-regulation of c-Myc protein expression in human HT-29 cells assessed as c-Myc protein level at 40 uM after 48 hrs by ELISA (reference value: 100%); type: functional
HT-29 [13] = assay: Down-regulation of VEGFA protein expression in human HT-29 cells assessed as VEGFA protein level at 40 uM after 48 hrs by ELISA (reference value: 100%); type: functional
HT-29 [14] = assay: Down-regulation of hTERT mRNA expression in human HT-29 cells assessed as hTERT mRNA level at 160 uM after 48 hrs by RT-qPCR analysis (reference value: 100%); type: functional
HT-29 [15] = assay: Down-regulation of c-Myc mRNA expression in human HT-29 cells assessed as c-Myc mRNA level at 160 uM after 48 hrs by RT-qPCR analysis (reference value: 100%); type: functional
HT-29 [16] = assay: Down-regulation of VEGFRA mRNA expression in human HT-29 cells assessed as VEGFRA mRNA level at 160 uM after 48 hrs by RT-qPCR analysis (reference value: 100%); type: functional
HT-29 [17] = assay: Down-regulation of c-Myc protein expression in human HT-29 cells assessed as c-Myc protein level at 160 uM after 48 hrs by ELISA (reference value: 100%); type: functional
HT-29 [18] = assay: Down-regulation of VEGFA protein expression in human HT-29 cells assessed as VEGFA protein level at 160 uM after 48 hrs by ELISA (reference value: 100%); type: functional
HT-29 [19] = assay: Down-regulation of hTERT mRNA expression in human HT-29 cells assessed as hTERT mRNA level at 20 uM after 48 hrs by RT-qPCR analysis (reference value: 100%); type: functional
HT-29 [20] = assay: Down-regulation of c-Myc mRNA expression in human HT-29 cells assessed as c-Myc mRNA level at 20 uM after 48 hrs by RT-qPCR analysis (reference value: 100%); type: functional
HT-29 [21] = assay: Down-regulation of c-Myc protein expression in human HT-29 cells assessed as c-Myc protein level at 20 uM after 48 hrs by ELISA (reference value: 100%); type: functional
HT-29 [22] = assay: Down-regulation of VEGFA protein expression in human HT-29 cells assessed as VEGFA protein level at 20 uM after 48 hrs by ELISA (reference value: 100%); type: functional
HT-29 [23] = assay: Down-regulation of hTERT mRNA expression in human HT-29 cells assessed as hTERT mRNA level at 145 uM after 48 hrs by RT-qPCR analysis (reference value: 100%); type: functional
HT-29 [24] = assay: Down-regulation of c-Myc mRNA expression in human HT-29 cells assessed as c-Myc mRNA level at 145 uM after 48 hrs by RT-qPCR analysis (reference value: 100%); type: functional
HT-29 [25] = assay: Down-regulation of VEGFRA mRNA expression in human HT-29 cells assessed as VEGFRA mRNA level at 145 uM after 48 hrs by RT-qPCR analysis (reference value: 100%); type: functional
HT-29 [26] = assay: Down-regulation of c-Myc protein expression in human HT-29 cells assessed as c-Myc protein level at 145 uM after 48 hrs by ELISA (reference value: 100%); type: functional
HT-29 [27] = assay: Down-regulation of VEGFA protein expression in human HT-29 cells assessed as VEGFA protein level at 145 uM after 48 hrs by ELISA (reference value: 100%); type: functional
HT-29 [28] = assay: Down-regulation of VEGFRA mRNA expression in human HT-29 cells assessed as VEGFRA mRNA level at 40 uM after 48 hrs by RT-qPCR analysis (reference value: 100%); type: functional
HT-29 [29] = assay: Down-regulation of hTERT mRNA expression in human HT-29 cells assessed as hTERT mRNA level at 240 uM after 48 hrs by RT-qPCR analysis (reference value: 100%); type: functional
HT-29 [30] = assay: Down-regulation of c-Myc mRNA expression in human HT-29 cells assessed as c-Myc mRNA level at 240 uM after 48 hrs by RT-qPCR analysis (reference value: 100%); type: functional
HT-29 [31] = assay: Down-regulation of VEGFRA mRNA expression in human HT-29 cells assessed as VEGFRA mRNA level at 240 uM after 48 hrs by RT-qPCR analysis (reference value: 100%); type: functional
HT-29 [32] = assay: Down-regulation of c-Myc protein expression in human HT-29 cells assessed as c-Myc protein level at 240 uM after 48 hrs by ELISA (reference value: 100%); type: functional
HT-29 [33] = assay: Down-regulation of VEGFA protein expression in human HT-29 cells assessed as VEGFA protein level at 240 uM after 48 hrs by ELISA (reference value: 100%); type: functional
HT-29 [34] = assay: Down-regulation of hTERT mRNA expression in human HT-29 cells assessed as hTERT mRNA level at 80 uM after 48 hrs by RT-qPCR analysis (reference value: 100%); type: functional
HT-29 [35] = assay: Down-regulation of c-Myc mRNA expression in human HT-29 cells assessed as c-Myc mRNA level at 80 uM after 48 hrs by RT-qPCR analysis (reference value: 100%); type: functional
HT-29 [36] = assay: Down-regulation of VEGFRA mRNA expression in human HT-29 cells assessed as VEGFRA mRNA level at 80 uM after 48 hrs by RT-qPCR analysis (reference value: 100%); type: functional
HT-29 [37] = assay: Down-regulation of c-Myc protein expression in human HT-29 cells assessed as c-Myc protein level at 80 uM after 48 hrs by ELISA (reference value: 100%); type: functional
HT-29 [38] = assay: Down-regulation of VEGFA protein expression in human HT-29 cells assessed as VEGFA protein level at 80 uM after 48 hrs by ELISA (reference value: 100%); type: functional

Compound	IC50 (HT-29 [1]) [µM]	IC50 (MCF7) [µM]	IC50 (HEK293) [µM]	selectivity ratio [2]	selectivity ratio [3]	also measured
COc1cccc(N2CCCC2)c1	310	51	210	3	3	
Oc1ccccc1-c1ccccn1	197	7	390	2	57	Activity (HT-29 [4]): 36%; Activity (HT-29 [5]): 17%; Activity (HT-29 [6]): 31%; Activity (HT-29 [7]): 62%; Activity (HT-29 [8]): 65%
COc1ccc(-c2ccccn2)cc1OC	56	210	170	3	< 1	Activity (HT-29 [9]): 8%; Activity (HT-29 [10]): 20%; Activity (HT-29 [11]): 38%; Activity (HT-29 [12]): 100%; Activity (HT-29 [13]): 48%
COc1ccc(-c2ccccn2)c(OC)c1	> 400	> 400	234	< 1	< 1	
COc1ccc(-c2cncnc2)cc1OC	> 400	200	> 400		2	
c1ccc(-c2cncnc2)cc1	> 400	7	> 400		> 50	
COc1ccc(N2CCCCC2)cc1	120	71	100		2	
COc1ccc(-c2cncnc2)c(OC)c1	> 400	> 400	> 400			
COc1cccc(N2CCOCC2)c1	160	100	> 400	3	5	Activity (HT-29 [14]): 72%; Activity (HT-29 [15]): 62%; Activity (HT-29 [16]): 54%; Activity (HT-29 [17]): 100%; Activity (HT-29 [18]): 50%
c1ccc(N2CCCC2)cc1	> 400	> 400	> 400			
Oc1ccccc1-c1cncnc1	380	61	90	< 1	2	
COc1ccc(-c2ncccn2)c(OC)c1	30	130	20	< 1	< 1	Activity (HT-29 [9]): 33%; Activity (HT-29 [19]): 85%; Activity (HT-29 [20]): 18%; Activity (HT-29 [21]): 63%; Activity (HT-29 [22]): 48%
Oc1ccccc1-c1cccnc1	115	41	294	2	7	Activity (HT-29 [23]): 44%; Activity (HT-29 [24]): 39%; Activity (HT-29 [25]): 18%; Activity (HT-29 [26]): 100%; Activity (HT-29 [27]): 96%
COc1ccc(-c2ncccn2)cc1OC	> 400	48	> 400		> 9	
COc1ccc(N2CCCC2)cc1	210	> 400	350	3	5	Activity (HT-29 [4]): 35%; Activity (HT-29 [5]): 79%; Activity (HT-29 [6]): 55%; Activity (HT-29 [7]): 100%; Activity (HT-29 [8]): 79%
c1ccc(N2CCOCC2)cc1	240	120	> 400	3	5	Activity (HT-29 [14]): 57%; Activity (HT-29 [15]): 67%; Activity (HT-29 [16]): 79%; Activity (HT-29 [17]): 95%; Activity (HT-29 [18]): 79%
Oc1ccccc1-c1ncccn1	> 400	41	> 400		14	
C=CCc1ccc(O)c(-c2ccc(O)c(CC=C)c2)c1 [HONOKIOL]	25	35	40	2	2	Activity (HT-29 [9]): 36%; Activity (HT-29 [19]): 45%; Activity (HT-29 [20]): 45%; Activity (HT-29 [21]): 53%; Activity (HT-29 [22]): 55%
COc1ccc(-c2cccnc2)cc1OC	> 400	223	> 400		> 2	
COc1ccc(-c2cccnc2)c(OC)c1	59	210	100	2	< 1	Activity (HT-29 [10]): 28%; Activity (HT-29 [11]): 39%; Activity (HT-29 [28]): 32%; Activity (HT-29 [12]): 56%; Activity (HT-29 [13]): 52%
c1ccc(-c2cccnc2)cc1	> 400	> 400	321	< 1	< 1	Activity (HT-29 [29]): 56%; Activity (HT-29 [30]): 35%; Activity (HT-29 [31]): 34%; Activity (HT-29 [32]): 60%; Activity (HT-29 [33]): 42%
COc1ccc(N2CCOCC2)cc1	180	73	> 400	3	7	Activity (HT-29 [14]): 63%; Activity (HT-29 [15]): 96%; Activity (HT-29 [16]): 66%; Activity (HT-29 [17]): 100%; Activity (HT-29 [18]): 64%
c1ccc(N2CCCCC2)cc1	120	157	> 400	5	4	Activity (HT-29 [34]): 41%; Activity (HT-29 [35]): 52%; Activity (HT-29 [36]): 89%; Activity (HT-29 [37]): 95%; Activity (HT-29 [38]): 75%
